Results from ChEMBL document CHEMBL1909046, “DrugMatrix in vitro pharmacology data”.

Tests used:
Androgen receptor = biological target: T1, Androgen receptor (Rattus norvegicus, UniProt P15207); note: in other assays of this panel Not Active means under 50% inhibition at 10 µM
T1 sequence (P15207 whole entry): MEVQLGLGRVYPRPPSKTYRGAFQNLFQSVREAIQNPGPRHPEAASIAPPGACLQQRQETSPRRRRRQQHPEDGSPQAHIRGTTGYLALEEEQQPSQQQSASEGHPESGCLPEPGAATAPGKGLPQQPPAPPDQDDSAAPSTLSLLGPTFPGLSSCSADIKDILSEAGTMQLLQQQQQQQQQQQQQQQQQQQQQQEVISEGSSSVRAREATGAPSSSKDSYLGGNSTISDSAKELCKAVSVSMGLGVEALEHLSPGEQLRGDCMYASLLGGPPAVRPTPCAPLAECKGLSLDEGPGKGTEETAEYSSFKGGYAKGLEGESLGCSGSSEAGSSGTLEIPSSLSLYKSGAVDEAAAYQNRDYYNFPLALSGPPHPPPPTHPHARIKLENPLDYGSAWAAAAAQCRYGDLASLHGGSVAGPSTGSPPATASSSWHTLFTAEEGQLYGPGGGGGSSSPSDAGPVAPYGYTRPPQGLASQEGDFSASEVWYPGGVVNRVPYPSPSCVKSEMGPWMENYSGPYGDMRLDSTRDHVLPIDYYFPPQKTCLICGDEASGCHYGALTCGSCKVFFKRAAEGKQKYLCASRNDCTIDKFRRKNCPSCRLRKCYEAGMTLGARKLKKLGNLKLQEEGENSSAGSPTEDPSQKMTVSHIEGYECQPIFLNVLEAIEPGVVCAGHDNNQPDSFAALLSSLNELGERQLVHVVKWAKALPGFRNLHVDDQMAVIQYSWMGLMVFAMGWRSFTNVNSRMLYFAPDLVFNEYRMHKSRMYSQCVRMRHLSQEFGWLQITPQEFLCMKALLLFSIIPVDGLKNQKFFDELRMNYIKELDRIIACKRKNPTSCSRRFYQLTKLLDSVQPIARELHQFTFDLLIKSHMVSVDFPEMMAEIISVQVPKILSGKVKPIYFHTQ

[1] = biological target: 5-hydroxytryptamine receptor 1B (Rattus norvegicus, UniProt P28564); assay type: cell membranes, Wistar, Cerebral cortex, Membrane; note: in other assays of this panel Not Active means under 50% inhibition at 10 µM
Chain of 5-hydroxytryptamine receptor 1B (P28564 whole entry): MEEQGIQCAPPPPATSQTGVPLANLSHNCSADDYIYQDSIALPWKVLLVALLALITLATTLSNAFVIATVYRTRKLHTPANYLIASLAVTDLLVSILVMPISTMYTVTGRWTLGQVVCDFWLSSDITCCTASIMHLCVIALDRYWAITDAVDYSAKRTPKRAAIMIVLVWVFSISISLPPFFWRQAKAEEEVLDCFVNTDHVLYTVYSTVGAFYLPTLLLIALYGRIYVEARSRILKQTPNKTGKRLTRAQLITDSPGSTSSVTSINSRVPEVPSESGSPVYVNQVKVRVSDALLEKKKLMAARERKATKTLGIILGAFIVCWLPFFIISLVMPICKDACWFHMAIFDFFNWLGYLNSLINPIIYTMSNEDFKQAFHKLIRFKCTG

Thromboxane-A synthase = biological target: T2, Thromboxane-A synthase (Homo sapiens, UniProt P24557); experiment: biochemical; assay type: tissue-based, Platelet; conditions: platelet;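 note: enzyme inhibition assay with PGH2 supplied as substrate; in other assays of this panel Not Active means under 50% inhibition at 10 µM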
T2 sequence (P24557 whole entry): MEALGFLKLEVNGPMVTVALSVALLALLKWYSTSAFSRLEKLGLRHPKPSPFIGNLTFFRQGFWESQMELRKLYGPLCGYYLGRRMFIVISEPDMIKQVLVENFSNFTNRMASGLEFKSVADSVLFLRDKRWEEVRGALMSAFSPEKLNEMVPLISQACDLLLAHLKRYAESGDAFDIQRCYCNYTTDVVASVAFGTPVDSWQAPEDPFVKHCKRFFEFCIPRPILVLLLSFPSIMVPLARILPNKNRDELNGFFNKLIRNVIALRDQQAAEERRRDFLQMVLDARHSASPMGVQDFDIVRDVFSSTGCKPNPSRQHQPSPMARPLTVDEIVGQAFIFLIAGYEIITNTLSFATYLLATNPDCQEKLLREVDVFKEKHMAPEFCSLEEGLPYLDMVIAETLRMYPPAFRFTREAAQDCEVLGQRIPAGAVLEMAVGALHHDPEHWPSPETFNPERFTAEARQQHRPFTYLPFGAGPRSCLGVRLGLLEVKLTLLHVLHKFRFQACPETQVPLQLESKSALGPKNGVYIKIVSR

[2] = biological target: T3, Type-2 angiotensin II receptor (Homo sapiens, UniProt P50052); experiment: biochemical; assay type: cell-based, CHO-K1; conditions: cho-k1; note: in other assays of this panel Not Active means under 50% inhibition at 10 µM
T3 sequence (P50052 whole entry): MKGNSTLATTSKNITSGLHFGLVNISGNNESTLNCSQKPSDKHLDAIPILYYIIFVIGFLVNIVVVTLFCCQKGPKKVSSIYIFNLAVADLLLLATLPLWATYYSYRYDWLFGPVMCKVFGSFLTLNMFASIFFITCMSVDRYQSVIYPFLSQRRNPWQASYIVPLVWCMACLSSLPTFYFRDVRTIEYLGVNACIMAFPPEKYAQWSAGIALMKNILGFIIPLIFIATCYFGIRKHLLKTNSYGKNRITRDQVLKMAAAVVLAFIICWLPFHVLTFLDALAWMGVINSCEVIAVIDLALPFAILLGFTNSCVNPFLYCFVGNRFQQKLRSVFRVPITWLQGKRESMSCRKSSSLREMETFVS

[3] = biological target: Aldo-keto reductase family 1 member B1 (Rattus norvegicus, UniProt P07943); experiment: biochemical; assay type: tissue-based, Lens of camera-type eye
[4] = biological target: T4, Alpha-1B adrenergic receptor (Rattus norvegicus, UniProt P15823); experiment: DRUGMATRIX: Alpha-1B adrenergic receptor radioligand binding (ligand: prazosin); assay type: cell membranes, Wistar, Liver, Membrane; conditions: Not Active = under 50% inhibition at 10 µM
T4 sequence (P15823 whole entry): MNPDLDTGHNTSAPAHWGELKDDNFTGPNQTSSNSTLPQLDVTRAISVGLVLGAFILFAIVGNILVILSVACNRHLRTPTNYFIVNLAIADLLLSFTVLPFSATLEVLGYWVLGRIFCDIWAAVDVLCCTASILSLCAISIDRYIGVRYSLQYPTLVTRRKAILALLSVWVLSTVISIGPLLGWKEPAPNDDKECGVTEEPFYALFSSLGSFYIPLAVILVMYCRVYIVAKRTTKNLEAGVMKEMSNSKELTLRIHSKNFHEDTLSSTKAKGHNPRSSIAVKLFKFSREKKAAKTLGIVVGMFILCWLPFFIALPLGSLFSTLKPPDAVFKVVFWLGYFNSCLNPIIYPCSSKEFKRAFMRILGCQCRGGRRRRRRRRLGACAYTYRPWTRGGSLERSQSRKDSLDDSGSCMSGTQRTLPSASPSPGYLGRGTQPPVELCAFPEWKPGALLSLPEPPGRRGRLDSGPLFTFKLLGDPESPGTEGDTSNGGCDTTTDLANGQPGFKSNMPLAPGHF

[5] = DRUGMATRIX: Sodium/nucleoside co-transporter radioligand binding (ligand: nitrobenzylthioinosine); assay type: cell membranes, Cavia porcellus, Dunkin-Hartley, Cerebral cortex, Membrane; conditions: Not Active = under 50% inhibition at 10 µM

Compound | IC50 (Androgen receptor) | IC50 [1] | IC50 (Thromboxane-A synthase) | IC50 [2] | IC50 [3] | IC50 [4] | IC50 [5] | Ki [5] | IC50 ([4]; read-out: IC50) | Ki ([4]; read-out: Ki) | Ki (Androgen receptor) | Ki [1] | Ki (Thromboxane-A synthase) | Ki [2] | Ki [3] | Ki [4]
C[C@@H]1O[C@@H](O[C@H]2C[C@@H](O)[C@]3(CO)[C@H]4[C@H](O)C[C@]5(C)[C@@H](C6=CC(=O)OC6)CC[C@]5(O)[C@@H]4CC[C@]3(O)C2)[C@H](O)[C@H](O)[C@H]1O [OUABAIN] | Not Active | Not Active | Not Active | Not Active | Not Active | Not Active | Not Active | Not Active |  |  |  |  |  |  |  | 
CCN(CC)CCCC(C)Nc1c2ccc(Cl)cc2nc2ccc(OC)cc12 (stereo not drawn) [QUINACRINE] | Not Active | Not Active | Not Active | Not Active | Not Active |  | Not Active | Not Active | 3410 nM | 1890 nM |  |  |  |  |  | 
CC[C@]1(O)C[C@@H]2CN(CCc3c([nH]c4ccccc34)[C@@](C(=O)OC)(c3cc4c(cc3OC)N(C)[C@H]3[C@@](O)(C(N)=O)[C@H](O)[C@]5(CC)C=CCN6CC[C@]43[C@@H]65)C2)C1 [VINDESINE] | Not Active | Not Active | Not Active | Not Active | Not Active | Not Active | Not Active | Not Active |  |  |  |  |  |  |  | 
COBALTOUS CHLORIDE | Not Active | Not Active | Not Active | Not Active | Not Active | Not Active | Not Active | Not Active |  |  | Not Active | Not Active | Not Active | Not Active | Not Active | Not Active
COLISTIN | Not Active | Not Active | Not Active | Not Active | Not Active | Not Active | Not Active | Not Active |  |  | Not Active | Not Active | Not Active | Not Active | Not Active | Not Active
